Test results from patent US11879895B2, “Intercellular proximity labeling using eGRASP” (Seoul National University R&DB Foundation, priority 2018, dated 2024).

Key:
HEK293T cells = experiment: GRASP signal at the interface of separately nucleofected HEK293T cells; assay type: cell-based, human; settings: pre- and post-constructs transduced into separate HEK293T cells through nucleofection
Excerpt: According to still another embodiment of the present disclosure, the first labeling material or the second labeling material may further comprise a first binding-enhancing site or a second binding-enhancing site, respectively. Specifically, when the first labeling material and the second labeling material are located in close proximity, the first labeling material and the second labeling material are bound to each other to generate a signal. In order to assist the binding, the first labeling material and the second labeling material may further comprise a first binding-enhancing site and a second binding-enhancing site, respectively. The first binding-enhancing site and the second binding-enhancing site may form a binding with each other. Therefore, when the first labeling material and the second labeling material are adjacent to each other, the first binding-enhancing site and the second binding-enhancing site are bound to assist the binding of the first labeling material and the second labeling material.
The upper figure of FIG. 5a is a result when either post-mGRASP or mCherry-binding pre-mGRASP co-expressing mTagBFP2 was transduced into HEK293T cells through nucleofection. […] Peptide p40 (APTYSPPPPP) was bound to a SH3 domain in the post-eGRASP structure to enhance GRASP signals. […]

DG = experiment: Validation of the Fos-rtTA system with seizures; assay type: in vivo, mice; settings: injection of seizure inducer, doxycycline 2 hours before
Description: FIGS. 8a to 8c show the results of validation experiments of the Fos-rtTA system with seizures. FIG. 8a is a schematic illustration of the injected AAV, in which the nuclear target mEmerald (mEmerald-Nuc) was regulated by the TRE3G promoter that were regulated by rtTA3G expressed by the Fos promoter, and the nuclear target mCherry regulated by CaMKIIα was used for an expression control.
Doxycycline was injected 2 hours before seizure induction or contextual fear conditioning (CFC) to successfully label activated cells during each event (FIGS. 8A to 8C and FIGS. 9A to 9D). FIGS. 8a to 8c show the results of validation experiments of the Fos-rtTA system with seizures. FIG. 8a is a schematic illustration of the injected AAV, in which the nuclear target mEmerald (mEmerald-Nuc) was regulated by the TRE3G promoter regulated by rtTA3G expressed by the Fos promoter, and the nuclear target mCherry regulated by CaMKIIα was used as an expression control. […] FIGS. 9a to 9d show the results of the verification experiment of the Fos-rtTA system using CFC. […] FIG. 9b is a diagram showing a timetable of actions used in the experiment.

Abl SH3 peptide = target: T1, Abl SH3 peptide (Homo sapiens, UniProt P00519); experiment: Binding of Abl SH3 binding peptide to Abl SH3 peptide of post-eGRASP; settings: p32 compared with p30
T1 construct: IgG kappa signal peptide (N)
T1 sequence (P00519 with tags, fused parts or gaps): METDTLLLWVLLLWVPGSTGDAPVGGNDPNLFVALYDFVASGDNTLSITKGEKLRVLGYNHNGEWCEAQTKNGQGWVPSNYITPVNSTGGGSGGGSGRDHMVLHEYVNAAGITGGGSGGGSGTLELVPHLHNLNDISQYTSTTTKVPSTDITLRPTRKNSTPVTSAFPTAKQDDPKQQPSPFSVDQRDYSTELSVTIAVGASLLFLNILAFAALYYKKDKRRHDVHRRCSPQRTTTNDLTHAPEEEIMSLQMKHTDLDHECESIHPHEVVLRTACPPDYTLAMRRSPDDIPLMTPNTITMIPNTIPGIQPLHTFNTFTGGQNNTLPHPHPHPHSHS
Description: (3) Abl SH3 binding peptide contained in Pre-eGRASP had p30 (APTKPPPLPP) or p32 (SPSYSPPPPP) sequence. p32 was bound more strongly to Abl SH3 peptide of post-eGRASP than p30. Therefore, in this example, a cyan pre-eGRASP designed to be continuously expressed was prepared using p30, and in this example, yellow pre-eGRASP designed to start to be expressed from a specific time point when memory starts to be formed was prepared using p32, thereby matching the balance of cyan fluorescence and yellow fluorescence.

## S72A: Additional S72A mutation in strands 1-10 of the split GFP; SEQ ID NO: 2
HEK293T cells
  GRASP signal at the interface between cells: GRASP signal increases

## C1CCc2nnnn2CC1 [Pentylenetetrazol]
DG
  mEmerald-Nuc signal in DG: strong mEmerald-Nuc signal

## SPSYSPPPPP ((synthetic) p32)
Abl SH3 peptide
  binding to Abl SH3 peptide, relative: more strongly
